This is an account of results in patent US10413612B2, “Method of treating cancer with a biomaterial and a toll-like receptor agonist” (Dana-Farber Cancer Institute, Inc., priority 2016, dated 2019).

For series [1], the system named is 4T1-Luc2 syngeneic breast cancer cells. The conditions noted are these: hydrogel with IL-15sa and anti-PD-1 (devices 1, 14-16). The method, then:
Seven-week-old female Balb/c mice were inoculated orthotopically with 100,000 4T1-Luc2 syngeneic breast cancer cells (into the fourth mammary fat pad). After 10 days, the mice were anesthetized, tumors were surgically resected, and compositions were placed in the resection site. […] The order of surgeries avoided systematic error by dividing up the groups. Standard follow-up care (wound clips, analgesic) was provided.
For the metastatic breast cancer model, 10^5 4T1-Luc2 or 4T1 cells (in 30 μl DPBS) were inoculated orthotopically into the fourth mammary pad of mice to generate a local tumor mass. Cells were injected without any incision to expose the fat pad. Mice were randomly assigned to treatment groups, and surgery was performed 10 days after tumor inoculation. For the metastatic melanoma and lung cancer models, 10^6B16-BL6 or 5×10^5 LLC cells (in 100 μl DPBS) were inoculated subcutaneously in mice to generate a local tumor mass. Mice were randomly assigned to treatment groups, and surgery was performed when tumor volumes reached ˜600 mm^3. While mice were kept under anesthesia at 2% isoflurane, the tumor was resected, and the hydrogel was placed in the site of the resultant cavity at the time of surgery. The wound was closed with medical clips. Control experiments were performed in which therapy was administered in solution at the site of surgery, intraperitoneally, or intravenously. For tumor re-challenge experiments, 10^4 4T1-Luc2 cells were inoculated in the contralateral fourth mammary fat pad. The surgeries were performed independently at least three times, and the surgeon was often blinded.
After surgery, mice were inspected weekly for tumor recurrence and distal metastasis by bioluminescence imaging (BLI). To this end, 10 min after intraperitoneal injection of D-luciferin (150 mg/kg), a substrate of Luc2, the mice were anesthetized with 2% isoflurane and imaged using an IVIS Spectrum In Vivo Imaging System (Perkin Elmer).
A series of compositions described above in Table 2 were evaluated in viva. In each group of evaluations, seven-week-old female Balb/c mice were inoculated orthotopically with 100,000 4T1-Luc2 syngeneic breast cancer cells (into the fourth mammary fat pad). After 10 days, mice were anesthetized, tumors were surgically resected, and the composition was placed in the resection site. Tumor relapse and metastasis were monitored via imaging over the course of 6 weeks.
Female BALB/cJ mice were inoculated orthotopically with 4T1-Luc2 breast cancer cells in their fourth mammary fat pad. Nine days later, the mice were imaged by bioluminescent IVIS imaging to confirm that the size of the tumors was consistent across animals to enable randomization into groups. On day 10 post-tumor inoculation, tumors (˜100 mm^3) were resected, and device 1 was placed in the tumor resection site. Controls included no treatment (sham), empty hydrogel (device 8/hydrogel 4), or delivery of the triple combination in solution (S+I+P)—via intraperitoneal injection, intravenous injection, or local administration.

Series [2] in a line: In vivo release study (fluorescence IVIS imaging). The arrangement: species or system non-tumor-bearing mice. The conditions noted are these: each time point: first 24 hours (2′3′-cGAMP), first week (IL-15sa). The source says: To evaluate the in vivo release profiles of Cy7 carboxylic acid (a model compound for R848), anti-PD-1, IL-15sa, and 2′3′-cGAMP, hydrogels containing the fluorophore or one of the fluorescently labeled payloads were surgically implanted into non-tumor-bearing mice.
The loading and release properties of the hydrogel were examined in additional experiments. […] It was then confirmed that the hydrogel extends the release of the small molecules and biologics in vivo. Cy7 carboxylic acid (Cy7-CA) was used as a model small molecule payload, as its physical properties are very similar to those of resiquimod (R848). Cy7-CA was administered to non-tumor-bearing mice, either in solution or loaded in a scaffold placed by the fourth mammary fat pad. The mice were assessed by fluorescence IVIS imaging (FIG. 37B), and the data were quantified (FIG. 37C). Whereas a loss of ˜60% of the signal was detected within two hours of administration of the fluorophore in solution, this amount of signal decay required 24 hours for the fluorophore loaded in the hydrogel. Over this time course, there was a […] for the latter group, on average.
To confirm that the hydrogel sustains the release of the small molecule and biologics in vivo, fluorescently labeled versions of 2 ? […]

Series [3] can be described thus: In vitro release study of payloads from hydrogel. Format: physicochemical. The conditions noted are these: sink conditions, PBS or media. Here is the method:
To determine the release kinetics of each payload from the hydrogel, a hydrogel loaded with fluorescently tagged anti-PD-1, fluorescently tagged IL-15sa, lenalidomide, celecoxib, fluorescently tagged 2′3′-cGAMP, or R848 was immersed in 3 mL pH 7.4 phosphate buffered saline (PBS). At each time point, 1 mL of media was taken out and the same amount of fresh buffer was added back. The amount of payload that had been released was then measured using a fluorescence plate reader or via HPLC.
Hydrogels were prepared according to the general procedure in Example 1. They contained either one or all of the payloads indicated. Fluorescent dyes were conjugated to the proteins to facilitate the measurement of protein release kinetics. The hydrogels were immersed in 3 mL of buffer (either PBS only, PBS with Tween80 (0.2% v/v), or RPMI with 10% FBS) and incubated at 37° C. with stirring.
At the indicated sampling time points, 1 mL of buffer was recovered for measurement and was replaced by an equivalent volume of fresh buffer. The aliquots were measured using a fluorescence plate reader to determine protein concentration. Aliquots were also assessed by HPLC to determine small molecule concentration.

In the case of 2′3′-cGAMP, the “survival benefit as innate immune activator component” value in series [1] is “conferred greater survival benefit than the Toll-like receptor (TLR) 7/8 agonist R848”. Also, the “percentage remaining locally, hydrogel relative to free compound” value in series [2] is recorded as “nearly twice”. Further, the “in vitro release kinetics (time scale)” value in series [3] is listed as “hours for the small molecule”.
